Test results as given in ChEMBL document CHEMBL1152749, “Haemolytic activity, cytotoxicity and membrane cell permeabilization of semi-synthetic and natural lupane- and oleanane-type saponins” (Bioorg Med Chem, 2009).

Assays:
DLD-1 [1] = test: Cell membrane permeabilization in human DLD1 cells assessed as drug level causing decrease in calcein fluorescence; format: ADME, cell-based
A549 [2] = test: Cell membrane permeabilization in human A549 cells assessed as drug level causing decrease in calcein fluorescence; format: ADME, cell-based
[3] = Toxicity in sheep erythrocytes assessed as induction of hemolysis; format: cell-based, Ovis aries, Erythrocyte; details: read-out: HD50 (the source's name)
[4] = Cell membrane permeabilization in human WS1 cells assessed as drug level causing decrease in calcein fluorescence; format: ADME, cell-based
DLD-1 [5] = test: Cytotoxicity against human DLD1 cells after 48 hrs by resazurin reduction test; format: functional, cell-based; details: DLD-1, 48 h
A549 [6] = test: Cytotoxicity against human A549 cells after 48 hrs by resazurin reduction test; format: functional, cell-based; details: A549, 48 h
[7] = Cytotoxicity against human WS1 cells after 48 hrs by resazurin reduction test; format: cell-based; details: WS1, 48 h

SMILES	IC50 (DLD-1 [1])	IC50 (A549 [2])	HC50 [3]	IC50 [4]	IC50 (DLD-1 [5])	IC50 (A549 [6])	IC50 [7]
C=C(C)[C@@H]1CC[C@]2(CO)CC[C@]3(C)[C@H](CC[C@@H]4[C@@]5(C)CC[C@H](O[C@H]6O[C@H](CO)[C@@H](O)[C@H](O)[C@@H]6O)C(C)(C)[C@@H]5CC[C@]43C)[C@@H]12	> 200 µM	> 200 µM	> 100 µM	> 200 µM			
C=C(C)[C@@H]1CC[C@]2(C(=O)O)CC[C@]3(C)[C@H](CC[C@@H]4[C@@]5(C)CC[C@H](O[C@@H]6O[C@H](CO)[C@@H](O)[C@H](O)[C@H]6O)C(C)(C)[C@@H]5CC[C@]43C)[C@@H]12	> 200 µM	> 200 µM	> 100 µM	> 200 µM	32 µM	> 100 µM	> 100 µM
C=C(C)[C@@H]1CC[C@]2(C(=O)O)CC[C@]3(C)[C@H](CC[C@@H]4[C@@]5(C)CC[C@H](O[C@H]6O[C@H](CO)[C@@H](O)[C@H](O)[C@@H]6O)C(C)(C)[C@@H]5CC[C@]43C)[C@@H]12	> 200 µM	> 200 µM	> 100 µM	> 200 µM			
C=C(C)[C@@H]1CC[C@]2(C(=O)O)CC[C@]3(C)[C@H](CC[C@@H]4[C@@]5(C)CC[C@H](O[C@@H]6O[C@H](CO)[C@H](O)[C@H](O)[C@H]6O)C(C)(C)[C@@H]5CC[C@]43C)[C@@H]12	> 200 µM	> 200 µM	> 100 µM	> 200 µM	> 100 µM	> 100 µM	> 100 µM
C=C(C)[C@@H]1CC[C@]2(C(=O)O)CC[C@]3(C)[C@H](CC[C@@H]4[C@@]5(C)CC[C@H](O[C@@H]6OC[C@@H](O)[C@H](O)[C@H]6O)C(C)(C)[C@@H]5CC[C@]43C)[C@@H]12	> 200 µM	> 200 µM	> 100 µM	> 200 µM			
C=C(C)[C@@H]1CC[C@]2(CO)CC[C@]3(C)[C@H](CC[C@@H]4[C@@]5(C)CC[C@H](O[C@@H]6O[C@H](CO)[C@@H](O)[C@H](O)[C@H]6O)C(C)(C)[C@@H]5CC[C@]43C)[C@@H]12	> 200 µM	> 200 µM	> 100 µM	> 200 µM	> 100 µM	> 100 µM	> 100 µM
C=C(C)[C@@H]1CC[C@]2(CO)CC[C@]3(C)[C@H](CC[C@@H]4[C@@]5(C)CC[C@H](O[C@@H]6OC[C@H](O)[C@H](O)[C@H]6O)C(C)(C)[C@@H]5CC[C@]43C)[C@@H]12	> 200 µM	> 200 µM	> 100 µM	> 200 µM	> 100 µM	> 100 µM	> 100 µM
C=C(C)[C@@H]1CC[C@]2(C(=O)O)CC[C@]3(C)[C@H](CC[C@@H]4[C@@]5(C)CC[C@H](O[C@@H]6OC[C@H](O)[C@H](O)[C@H]6O)C(C)(C)[C@@H]5CC[C@]43C)[C@@H]12	> 200 µM	> 200 µM	> 100 µM	> 200 µM	11 µM	12 µM	19 µM
C=C(C)[C@@H]1CC[C@]2(CO[C@@H]3O[C@H](CO)[C@@H](O)[C@H](O)[C@H]3O)CC[C@]3(C)[C@H](CC[C@@H]4[C@@]5(C)CC[C@H](O[C@@H]6O[C@@H](C)[C@H](O)[C@@H](O)[C@H]6O)C(C)(C)[C@@H]5CC[C@]43C)[C@@H]12	> 200 µM	> 200 µM	> 100 µM	> 200 µM			
CC1(C)CC[C@]2(C(=O)O)CC[C@]3(C)C(=CC[C@@H]4[C@@]5(C)CC[C@H](O[C@@H]6OC[C@H](O)[C@H](O)[C@H]6O)[C@@](C)(CO)[C@@H]5CC[C@]43C)[C@@H]2C1	54 µM	40 µM	12 µM	51 µM	57 µM	58 µM	30 µM
C=C(C)[C@@H]1CC[C@]2(C(=O)O[C@@H]3O[C@H](CO)[C@@H](O)[C@H](O)[C@H]3O)CC[C@]3(C)[C@H](CC[C@@H]4[C@@]5(C)CC[C@H](O[C@@H]6O[C@H](CO)[C@@H](O)[C@H](O)[C@H]6O)C(C)(C)[C@@H]5CC[C@]43C)[C@@H]12	> 200 µM	> 200 µM	> 100 µM	> 200 µM			
C=C(C)[C@@H]1CC[C@]2(CO[C@@H]3O[C@H](CO)[C@@H](O)[C@H](O)[C@H]3O)CC[C@]3(C)[C@H](CC[C@@H]4[C@@]5(C)CC[C@H](O[C@@H]6OC[C@H](O)[C@H](O)[C@H]6O)C(C)(C)[C@@H]5CC[C@]43C)[C@@H]12	> 200 µM	> 200 µM	> 100 µM	> 200 µM			
C=C(C)[C@@H]1CC[C@]2(C(=O)O)CC[C@]3(C)[C@H](CC[C@@H]4[C@@]5(C)CC[C@H](O[C@@H]6O[C@@H](C)[C@H](O)[C@@H](O)[C@H]6O)C(C)(C)[C@@H]5CC[C@]43C)[C@@H]12	> 200 µM	> 200 µM	> 100 µM	> 200 µM	3.9 µM	2.6 µM	31 µM
C=C(C)[C@@H]1CC[C@]2(C(=O)O[C@@H]3O[C@H](CO)[C@@H](O)[C@H](O)[C@H]3O)CC[C@]3(C)[C@H](CC[C@@H]4[C@@]5(C)CC[C@H](O)C(C)(C)[C@@H]5CC[C@]43C)[C@@H]12	> 200 µM	> 200 µM	> 100 µM	> 200 µM			
C=C(C)[C@@H]1CC[C@]2(CO)CC[C@]3(C)[C@H](CC[C@@H]4[C@@]5(C)CC[C@H](O[C@@H]6O[C@@H](CO)[C@H](O)[C@H]6O)C(C)(C)[C@@H]5CC[C@]43C)[C@@H]12	> 200 µM	> 200 µM	> 100 µM	> 200 µM	> 100 µM	> 100 µM	> 100 µM
C[C@@H]1O[C@@H](O[C@H]2[C@H](O[C@H]3CC[C@]4(C)[C@H]5CC=C6[C@@H]7CC(C)(C)CC[C@]7(C(=O)O)CC[C@@]6(C)[C@]5(C)CC[C@H]4C3(C)C)OC[C@H](O)[C@@H]2O)[C@H](O)[C@H](O)[C@H]1O	4 µM	3 µM	2 µM	2.8 µM	30 µM	15 µM	14 µM
C=C(C)[C@@H]1CC[C@]2(C(=O)O)CC[C@]3(C)[C@H](CC[C@@H]4[C@@]5(C)CC[C@H](O[C@@H]6O[C@@H](CO)[C@H](O)[C@H]6O)C(C)(C)[C@@H]5CC[C@]43C)[C@@H]12	> 200 µM	> 200 µM	> 100 µM	> 200 µM	> 100 µM	> 100 µM	> 100 µM
C=C(C)[C@@H]1CC[C@]2(C(=O)O[C@@H]3O[C@H](CO)[C@@H](O)[C@H](O)[C@H]3O)CC[C@]3(C)[C@H](CC[C@@H]4[C@@]5(C)CC[C@H](O[C@@H]6OC[C@H](O)[C@H](O)[C@H]6O)C(C)(C)[C@@H]5CC[C@]43C)[C@@H]12	> 200 µM	> 200 µM	> 100 µM	> 200 µM			
C=C(C)[C@@H]1CC[C@]2(C(=O)O)CC[C@]3(C)[C@H](CC[C@@H]4[C@@]5(C)CC[C@H](O[C@H]6OC[C@@H](O)[C@@H](O)[C@@H]6O)C(C)(C)[C@@H]5CC[C@]43C)[C@@H]12	> 200 µM	> 200 µM	> 100 µM	> 200 µM	17 µM	10 µM	47 µM
C=C(C)[C@@H]1CC[C@]2(CO[C@@H]3O[C@H](CO)[C@@H](O)[C@H](O)[C@H]3O)CC[C@]3(C)[C@H](CC[C@@H]4[C@@]5(C)CC[C@H](O[C@@H]6O[C@H](CO)[C@@H](O)[C@H](O)[C@H]6O)C(C)(C)[C@@H]5CC[C@]43C)[C@@H]12	> 200 µM	> 200 µM	> 100 µM	> 200 µM			
C=C(C)[C@@H]1CC[C@]2(CO[C@@H]3O[C@@H](C)[C@H](O)[C@@H](O)[C@H]3O)CC[C@]3(C)[C@H](CC[C@@H]4[C@@]5(C)CC[C@H](O[C@@H]6O[C@@H](C)[C@H](O)[C@@H](O)[C@H]6O)C(C)(C)[C@@H]5CC[C@]43C)[C@@H]12	> 200 µM	> 200 µM	> 100 µM	> 200 µM			
C=C(C)[C@@H]1CC[C@]2(C(=O)O[C@@H]3O[C@H](CO)[C@@H](O)[C@H](O)[C@H]3O)CC[C@]3(C)[C@H](CC[C@@H]4[C@@]5(C)CC[C@H](O[C@@H]6O[C@@H](C)[C@H](O)[C@@H](O)[C@H]6O)C(C)(C)[C@@H]5CC[C@]43C)[C@@H]12	> 200 µM	> 200 µM	> 100 µM	> 200 µM			
C=C(C)[C@@H]1CC[C@]2(C(=O)O[C@@H]3O[C@@H](C)[C@H](O)[C@@H](O)[C@H]3O)CC[C@]3(C)[C@H](CC[C@@H]4[C@@]5(C)CC[C@H](O[C@@H]6O[C@@H](C)[C@H](O)[C@@H](O)[C@H]6O)C(C)(C)[C@@H]5CC[C@]43C)[C@@H]12	> 200 µM	> 200 µM	85 µM	> 200 µM			
C=C(C)[C@@H]1CC[C@]2(C(=O)O)CC[C@]3(C)[C@H](CC[C@@H]4[C@@]5(C)CC[C@H](O)C(C)(C)[C@@H]5CC[C@]43C)[C@@H]12 [BETULINIC ACID]	> 200 µM	> 200 µM	> 100 µM	> 200 µM			
C=C(C)[C@@H]1CC[C@]2(CO)CC[C@]3(C)[C@H](CC[C@@H]4[C@@]5(C)CC[C@H](O)C(C)(C)[C@@H]5CC[C@]43C)[C@@H]12 [BETULIN]	> 200 µM	> 200 µM	> 100 µM	> 200 µM			
